{"source": "paper PMC12426922", "about": "“Fingerprinting the Intestinal Transport of Low-Molecular-Mass Advanced Glycation End-Products (AGEs) Using a Caco‑2 Transwell Model” (Journal of Agricultural and Food Chemistry, 2025)", "key": {"[1]": {"test_system": "differentiated Caco-2 cells", "experiment": "WST-1 cytotoxicity assay, viability of differentiated Caco-2 cells after 2 h exposure", "type": "cell-based, Human", "method": "(§1) Human colon carcinoma cells (Caco-2 cells) were obtained from the American Type Culture Collection (ATCC, Rockville, MD, USA). Caco-2 cells were cultured in complete culture medium, composed of DMEM GlutaMAX with 10% FBS (v/v), 1% P/S (v/v), and 1% NEAA (v/v) at 37 °C in a 5% (v/v) CO2 incubator. In this study, Caco-2 cells within passages 10–15 were utilized.\nThe WST-1 assay was used to quantify the viability of differentiated Caco-2 cells upon exposure to the individual AGEs and their equimolar mixture. To this end, Caco-2 cells were seeded in 96-well plates at 3 × 10^4 cells/well (100 μL) and incubated at 37 °C under 5% (v/v) CO2 for 20 days. The complete culture medium was refreshed on each alternate day. After full differentiation, the culture medium was removed, and the cells were washed with HBSS (containing 1% (v/v) HEPES) twice on the testing day. The same volume (100 μL) of HBSS containing a series of concentrations of the different individual test compounds or of a mixture containing all 10 AGEs was added from a 20-times-concentrated stock solution in HBSS. The test concentrations were designed based on the estimated daily intake of total AGEs (0.55–0.66 mg/(kg·day)) and high-exposure scenarios (1.4–1.8 mg/(kg day)). […] After exposure for 2 h, the absorbance at 440 and 620 nm was measured in a plate spectrophotometer (Molecular Devices, San Jose, CA, USA, Spectra Max M2). After measurement, the cell viability was calculated as cell viability (%)=(Atested 440 nm−Atested 620 nm)/(Acontrol 440 nm−Acontrol 620 nm)×100"}, "Caco-2 cell monolayer [2]": {"test_system": "Caco-2 cell monolayer", "design": "method as in our previous study", "settings": "CML in single testing; ref our previous study; cited from earlier work"}, "Caco-2 cell layer": {"test_system": "Caco-2 cell layer", "experiment": "Transport of AGE mixture across Caco-2 cell layer (transwell, apical to basolateral)", "type": "in vitro ADME, Human", "method": "as §1\n(§2) Caco-2 cells were cultured until reaching 50%–60% confluence (undifferentiated Caco-2 cells), followed by trypsinization. Then, cells were seeded at 3 × 10^4 cells per insert in 100 μL of complete culture medium into the transwell inserts of a 24-well transwell plate, and 600 μL of complete culture medium was added to the basolateral compartments. In both the apical and basolateral compartments, the medium was renewed every other day. After 2 weeks, the transepithelial electrical resistance (TEER) value was measured using a Millicell ERS-2 Electrical Resistance System (Burlington, MA, USA) every other day. Only wells with a TEER value of >400 Ω/cm^2 were used for transport experiments. Moreover, the TEER value was measured before and after the transport experiment to ascertain that the Caco-2 cell layer remained intact during the whole transport experiment.\n(§3) Transport experiments were performed after 20 days of differentiation of the Caco-2 cells. The culture medium was replaced with HBSS (containing 1% (v/v) HEPES) 30 min prior to testing in both the apical and basolateral compartments. After the 30 min preincubation, 100 μL of HBSS containing a mixture of the 10 different AGEs including CML, CEL, GALA, argpyrimidine, MG-H1, GOLD, GOLA, MOLD, pentosidine, and pyrraline, each at 100 μmol/L, was added to the apical compartment after removing the preincubation medium, while the basolateral medium was replaced by 600 μL of HBSS. […] At 120 min, a 10 μL sample from the apical side was taken for calculating apical side retention (nontransported percentage).\n(§4) The apparent permeability coefficient (Papp) value was calculated according to the methodology described by Yee.\n(§5) AGEs were quantified by LC-MS using a Shimadzu Nexera XR LC-40D XR UPLC system (Kyoto, Japan) equipped with a UPLC Amide column (100 mm × 2.1 mm, 1.7 μm) without derivatization coupled with a Shimadzu LCMS-8045 triple quadrupole mass spectrometer (Kyoto, Japan). The analytical column was maintained at 40 °C throughout the quantification process. A multistep binary gradient system of water containing 0.1% (v/v) formic acid (solvent A) and acetonitrile containing 0.1% (v/v) formic acid (solvent B) was used. In the whole gradient program, the total proportion of solvents A and B is always equal to 100%. The gradient program was designed as follows: 75% solvent B to 12.5% solvent B from 0 to 10 min, followed by 12.5% solvent B from 10 to 11 min. […] The initial flow rate was set to 0.30 mL/min. Subsequently, it was reduced to 0.25 mL/min at 0.3 min, which was kept until 10 min. Afterward, there was a gradual decrease, reaching 0.15 mL/min at 11 min, and this rate was maintained until 12 min. […] Between 1 and 11 min of gradient running, the line was set to MS, and for the other time periods, the line was set to waste. The retention time and mass spectrometry parameters of individual AGEs are listed in Table S1 and the chromatograms of the samples are shown in Figure S1."}, "PepT1": {"test_system": "PepT1", "experiment": "Transport of AGE mixture across Caco-2 cell layer (transwell, apical to basolateral)", "type": "in vitro ADME, Human", "settings": "human, mixture, each AGE 100 μmol/L", "method": "as §1, §2, §3, §4, §5"}, "[3]": {"experiment": "Transport of AGE mixture across Caco-2 cell layer (transwell, apical to basolateral)", "type": "in vitro ADME, Human", "settings": "human; for recovery at 2 h, 100 μmol/L: read-out: percentage of the amount added at the apical side at t = 0: recovery; for Papp at 120 min, 100 μmol/L: data from 120 min", "method": "as §1, §2, §3, §4, §5"}, "Caco-2 cell monolayer [4]": {"test_system": "Caco-2 cell monolayer", "experiment": "Accumulation of AGEs in the Caco-2 cell monolayer after transport experiment", "type": "in vitro ADME, Human", "settings": "mixture, each AGE 100 μmol/L, 2 h", "method": "After the transport experiment, the cell monolayer on the inset membrane was washed three times with HBSS and three times with PBS. […] The samples were subsequently centrifuged at 16 000g for 20 min at 4 °C, and the supernatant was collected for further analysis by LC-MS.\nas §5, with “The” for “AGEs were quantified by LC-MS using a Shimadzu Nexera XR LC-40D XR UPLC system (Kyoto, Japan) equipped with a UPLC Amide column (100 mm × 2.1 mm, 1.7 μm) without derivatization coupled with a Shimadzu LCMS-8045 triple quadrupole mass spectrometer (Kyoto, Japan). The”, “100%.” for “100%. The gradient program was designed as follows: 75% solvent B to 12.5% solvent B from 0 to 10 min, followed by 12.5% solvent B from 10 to 11 min.”"}, "[5]": {"settings": "4 °C, mixture, each AGE 100 μmol/L, 2 h"}, "[6]": {"settings": "Gly-Sar 10 mmol/L, mixture, each AGE 100 μmol/L, 2 h"}, "[7]": {"settings": "cytochalasin D pretreatment, mixture, each AGE 100 μmol/L, 2 h"}, "[8]": {"settings": "standard treatment, mixture, each AGE 100 μmol/L, 2 h"}, "[9]": {"settings": "Caco-2, 4 °C, mixture, each AGE 100 μmol/L"}}, "note": "Where “and” joins values, the source holds several entries; their conditions need not be identical. Equal values may be shown once. Read-outs that look alike come from different tables or passages of the source. Marks after values point to notes of the source that are not given here.", "data": [{"molecule": "N[C@@H](CCCCNCC(=O)O)C(=O)O", "note": "[CML, N-ε-(carboxymethyl)-lysine]", "values": [{"measurement": "effect on cell viability", "setting": "[1]", "result": "did not affect cell viability up to the highest concentration tested"}, {"measurement": "intracellular accumulation", "setting": "Caco-2 cell monolayer [2]", "result": 4.5, "unit": "%"}, {"measurement": "effect of 4 °C on transport compared to 37 °C", "setting": "Caco-2 cell layer; 4 °C versus 37 °C", "result": "significantly reduced"}, {"measurement": "percentage of the amount added at the apical side at t = 0: apical side", "setting": "Caco-2 cell layer; [5]", "result": "89.4 ± 5.3 ^a %"}, {"measurement": "percentage of the amount added at the apical side at t = 0: basolateral side", "setting": "Caco-2 cell layer; [5]", "result": "0.3 ± 0.1 ^b %"}, {"measurement": "percentage of the amount added at the apical side at t = 0: apical side", "setting": "Caco-2 cell layer; [6]", "result": "86.2 ± 3.6 ^a %"}, {"measurement": "percentage of the amount added at the apical side at t = 0: basolateral side", "setting": "Caco-2 cell layer; [6]", "result": "0.5 ± 0.1 ^b %"}, {"measurement": "percentage of the amount added at the apical side at t = 0: apical side", "setting": "Caco-2 cell layer; [7]", "result": "91.8 ± 5.7 ^a %"}, {"measurement": "percentage of the amount added at the apical side at t = 0: basolateral side", "setting": "Caco-2 cell layer; [7]", "result": "1.3 ± 0.6 ^a %"}, {"measurement": "Papp value in the mixture as percentage of the Papp value tested in isolation in previous study", "setting": "Caco-2 cell layer; mixture versus compound in isolation (our previous study)", "result": 57, "unit": "%"}, {"measurement": "percentage of the amount added at the apical side at t = 0: apical side (nontransported)", "setting": "Caco-2 cell layer; [8]", "result": "89.0 ± 6.1 ^a %"}, {"measurement": "percentage of the amount added at the apical side at t = 0: basolateral side (transported)", "setting": "Caco-2 cell layer; [8]", "result": "0.5 ± 0.3 ^b %"}, {"measurement": "recovery at 2 h, 100 μmol/L", "setting": "PepT1; Caco-2, with Gly-Sar 10 mmol/L (apical compartment), Gly-Sar 10 mmol/L, 2 h, read-out: percentage of the amount added at the apical side at t = 0: recovery", "result": "92.7 ± 3.1", "unit": "%"}, {"measurement": "Papp at 120 min, 100 μmol/L", "setting": "PepT1; Caco-2, with Gly-Sar 10 mmol/L (apical), 10 mmol/L Gly-Sar apical (PepT1 inhibition), data from 120 min", "result": 0.207, "unit": "×10⁻⁶ cm/s"}, {"measurement": "recovery at 2 h, 100 μmol/L", "setting": "[3]; [9]", "result": "90 ± 5.3", "unit": "%"}, {"measurement": "Papp at 120 min, 100 μmol/L", "setting": "[3]; [9]", "result": 0.105, "unit": "×10⁻⁶ cm/s"}, {"measurement": "recovery at 2 h, 100 μmol/L", "setting": "[3]; Caco-2, cytochalasin D pretreatment, mixture, each AGE 100 μmol/L", "result": "96.9 ± 5.8", "unit": "%"}, {"measurement": "Papp at 120 min, 100 μmol/L", "setting": "[3]; Caco-2, standard treatment (37 °C), equimolar mixture of 10 AGEs, each 100 μmol/L apical", "result": 0.219, "unit": "×10⁻⁶ cm/s"}, {"measurement": "recovery at 2 h, 100 μmol/L", "setting": "[3]; Caco-2, standard treatment, mixture, each AGE 100 μmol/L", "result": "93.1 ± 6.1", "unit": "%"}, {"measurement": "Papp at 120 min, 100 μmol/L", "setting": "[3]; Caco-2, cytochalasin D 1 μg/mL, 30 min apical preincubation, mixture, each AGE 100 μmol/L", "result": 0.561, "unit": "×10⁻⁶ cm/s"}, {"measurement": "percentage of the amount added at the apical side at t = 0: accumulation", "setting": "Caco-2 cell monolayer [4]; 4 °C", "result": "0.3 ± 0.3 ^c %"}, {"measurement": "percentage of the amount added at the apical side at t = 0: accumulation", "setting": "Caco-2 cell monolayer [4]; Gly-Sar 10 mmol/L", "result": "6.0 ± 2.1 ^a %"}, {"measurement": "percentage of the amount added at the apical side at t = 0: accumulation", "setting": "Caco-2 cell monolayer [4]; cytochalasin D pretreatment", "result": "3.8 ± 0.9 ^b %"}, {"measurement": "percentage of the amount added at the apical side at t = 0: accumulation (intracellular)", "setting": "Caco-2 cell monolayer [4]; standard treatment", "result": "3.5% and 3.5 ± 0.6 ^b %"}]}]}
